# PubChem BioAssay (NCI)
# Where “and” joins values, the source holds several entries; their conditions need not be identical. Equal entries are not always repeated.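 All cell lines were grown in 96-well plates and treated with compound for 48 hours. Here, GI50 denotes the concentration required for 50% inhibition of growth. The concentration for full growth arrest is given as TGI.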
# Key:
# Test in all cases: inhibition of tumour cell growth, NCI panel, 48 h
# HS 578T breast = tested on: HS 578T breast
# SF-268 CNS = tested on: SF-268 CNS
# SF-539 CNS = tested on: SF-539 CNS
# HOP-92 NSCLC = tested on: HOP-92 NSCLC
# SW-620 colon = tested on: SW-620 colon
# OVCAR-8 ovarian = tested on: OVCAR-8 ovarian
# UACC-257 melanoma = tested on: UACC-257 melanoma
# HT29 colon = tested on: HT29 colon
# HL-60(TB) leukemia = tested on: HL-60(TB) leukemia
# T-47D breast = tested on: T-47D breast
SMILES,GI50 (HS 578T breast) [µM],TGI (HS 578T breast),GI50 (SF-268 CNS) [µM],TGI (SF-268 CNS),GI50 (SF-539 CNS),TGI (SF-539 CNS),GI50 (HOP-92 NSCLC),TGI (HOP-92 NSCLC),GI50 (SW-620 colon),TGI (SW-620 colon),GI50 (OVCAR-8 ovarian),TGI (OVCAR-8 ovarian),GI50 (UACC-257 melanoma),TGI (UACC-257 melanoma),GI50 (HT29 colon),TGI (HT29 colon),GI50 (HL-60(TB) leukemia) [µM],TGI (HL-60(TB) leukemia),GI50 (T-47D breast) [µM],TGI (T-47D breast)
Fc1ccc(-c2nn(-c3ccccc3)cc2-c2nc3ccccc3o2)cc1,6.48,66.5 µM,4.53,> 100 µM,8.88 µM,28.7 µM,0.158 µM,4.48 µM,3.12 µM,36.4 µM,3.61 µM,> 100 µM,13.3 µM,48.2 µM,9.46 µM,30.4 µM,3.29,9.26 µM,37.3,> 100 µM
O=C(O)CCCc1ccc(N(CCCl)CCCl)cc1,–,570 µM and 312 µM,4.91,23.7 µM and 220 µM and 169 µM,7.28 µM and 18.2 µM,26.9 µM and 99.4 µM and 89.6 µM,25.2 µM and 99.1 µM,46.6 µM and 199 µM and 175 µM,13.8 µM and 107 µM,51.4 µM and 356 µM and 399 µM,17.5 µM and 68 µM,57.8 µM and 366 µM and 159 µM,26 µM and 148 µM,60.7 µM and 298 µM and 306 µM,19.9 µM and 173 µM,59.3 µM and 486 µM and 518 µM,0.979,21.2 µM and 121 µM,27.3,333 µM and 292 µM
CC1=C(CCCOC(=O)NCCCl)C2=C(C)C3(CC3)[C@@](C)(O)C(=O)C2=C1,8.31,87.4 µM,3.07,51.7 µM,2.04 µM,5.5 µM,2.87 µM,8.24 µM,24.5 µM,> 100 µM,3.4 µM,> 100 µM,3.91 µM,> 100 µM,3.01 µM,28.6 µM,4.57,> 100 µM,3.36,> 100 µM
CN1CCN(Cc2ccc(NC(=O)c3cncc(C#Cc4cnc(N)c5ccccc45)c3)cc2C(F)(F)F)CC1,0.371,1.18 µM,0.321,0.832 µM,0.38 µM,0.792 µM,0.401 µM,1.25 µM,0.125 µM,0.421 µM,0.473 µM,1.46 µM,0.605 µM,1.27 µM,0.28 µM,1.29 µM,0.165,0.665 µM,1.01,4.11 µM
CN(C)c1ccc(/C=C2\C[N+](C)(C)C/C(=C\c3ccc(N(C)C)cc3)C2=O)cc1,–,> 100 µM,–,66.2 µM,–,49.9 µM,–,78.9 µM,–,43.2 µM,–,65.7 µM,–,32.4 µM,–,24 µM,–,13.1 µM,–,46.6 µM
CCCCCCCCCCCCOC1C(CNCC2OC3OC(C)(C)OC3C2NC(=O)Nc2ccc(C(=O)OCC)cc2)OC2OC(C)(C)OC21 (centres undefined),1.67,3.76 µM,1.63,3.24 µM,1.79 µM,3.52 µM,1.84 µM,3.92 µM,1.75 µM,3.29 µM,2.16 µM,4.3 µM,5.05 µM,16.2 µM,1.71 µM,3.56 µM,2.65,5.9 µM,2.68,7.1 µM
COC(=O)c1c2c(c(C)[n+]([O-])c1C)C(=O)C=CC2=O,2.84,8.64 µM,2.05,5.52 µM,1.8 µM,3.2 µM,2.12 µM,6.03 µM,1.54 µM,3.74 µM,0.339 µM,1.24 µM,1.57 µM,3.34 µM,2.41 µM,6.54 µM,2.16,4.84 µM,1.97,7.26 µM
CCOc1ccc2nc(NC(=O)/C(CC(=O)CC(C3=C(O)c4ccccc4CC3=O)c3ccccc3)=N\O)sc2c1 (centres undefined),–,> 100 µM,–,> 100 µM,–,> 100 µM,–,> 100 µM,–,> 100 µM,–,> 100 µM,–,> 100 µM,–,> 100 µM,–,> 100 µM,–,> 100 µM
Cn1c(-c2nonc2N)nc2cnccc21,14.9,> 25 µM,> 25,> 25 µM,12.2 µM,> 25 µM,8.73 µM,> 25 µM,> 25 µM,> 25 µM,> 25 µM,> 25 µM,> 25 µM,> 25 µM,> 25 µM,> 25 µM,> 25,> 25 µM,> 25,> 25 µM
O=c1c(Cl)c(Cl)cnn1-c1ccccc1,–,7.02 µM and 20.3 µM,–,15.7 µM and 25.6 µM,4.74 µM and 9.8 µM,10.2 µM and 23.2 µM,1.98 µM and 7.58 µM,3.61 µM and 16 µM,2 µM,5.5 µM,–,6.05 µM and 11.5 µM,–,14.1 µM and 48.4 µM,1.75 µM and 3.77 µM,3.38 µM and 8.06 µM,0.774,10.7 µM and 2.11 µM,–,16.4 µM and 5.04 µM
CC1(C)N=C(N)N=C(N)N1c1ccc(CCCCc2ccc(S(=O)(=O)F)cc2Cl)c(Cl)c1,–,> 500 µM,–,29.3 µM,–,13.9 µM,–,48.6 µM,–,360 µM,–,261 µM,–,64 µM,–,298 µM,–,11.6 µM,–,34.8 µM
COc1ccccc1NC(=O)c1ccc(/C=C/C(=O)c2nccn2C)cc1,1.1,9.8 µM,0.631,1.97 µM,0.495 µM,1.07 µM,0.673 µM,5.01 µM,0.473 µM,1.22 µM,0.916 µM,10.1 µM,0.972 µM,10.1 µM,0.644 µM,1.78 µM,0.547,1.41 µM,0.711,2.58 µM
N#Cc1cnn2ccn(C3OC(COC(=O)c4ccccc4)C(OC(=O)c4ccccc4)C3OC(=O)c3ccccc3)c12 (centres undefined),–,21.5 µM,–,> 21.5 µM,–,> 21.5 µM,–,> 31.6 µM,–,> 21.5 µM,–,> 46.4 µM,–,> 21.5 µM,–,> 21.5 µM,–,> 21.5 µM,–,21.5 µM
CC[n+]1ccc2c(c1)C(=O)c1nccc3c1c-2nc1ccccc13,0.955,> 10.1 µM,0.34,3.63 µM,0.489 µM,1.47 µM,1.45 µM,7.02 µM,1.1 µM,11.5 µM,1.04 µM,6.47 µM,3.42 µM,9.06 µM,4.15 µM,23.1 µM,5.79,16.9 µM,2.2,9.19 µM
COc1ccc(CN2CCCC(C(=O)c3ccc(C(F)(F)F)cc3)C2)c(O)c1 (centres undefined),24.7,> 100 µM,42.1,> 100 µM,18.8 µM,46.1 µM,11.1 µM,58 µM,18.6 µM,41.2 µM,36.6 µM,> 100 µM,24.2 µM,74.4 µM,14.4 µM,33.9 µM,24.9,62 µM,22.1,80.1 µM
